Measured values: PubChem BioAssay (NCI)
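Values below derive from 48-hour exposures of cells grown in 96-well plates, with endpoints linearly interpolated between the two concentrations bracketing the appropriate inhibition level. GI50 = concentration required for 50% inhibition of growth. Definition used: TGI = concentration required for complete inhibition of growth.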

Tests used:
Test in all cases: DTP human tumour cell line panel, 48 h
CAKI-1 renal = system: CAKI-1 renal
HCT-15 colon = system: HCT-15 colon
KM12 colon = system: KM12 colon
OVCAR-8 ovarian = system: OVCAR-8 ovarian
SF-268 CNS = system: SF-268 CNS
SK-MEL-5 melanoma = system: SK-MEL-5 melanoma
SNB-19 CNS = system: SNB-19 CNS
SW-620 colon = system: SW-620 colon
CCRF-CEM leukemia = system: CCRF-CEM leukemia

SMILES | TGI (CAKI-1 renal) [µM] | TGI (HCT-15 colon) [µM] | TGI (KM12 colon) [µM] | TGI (OVCAR-8 ovarian) [µM] | TGI (SF-268 CNS) [µM] | TGI (SK-MEL-5 melanoma) [µM] | TGI (SNB-19 CNS) [µM] | TGI (SW-620 colon) [µM] | TGI (CCRF-CEM leukemia) [µM] | GI50 (CAKI-1 renal) [µM] | GI50 (CCRF-CEM leukemia) [µM] | GI50 (HCT-15 colon) [µM] | GI50 (KM12 colon) [µM] | GI50 (OVCAR-8 ovarian) [µM] | GI50 (SF-268 CNS) [µM] | GI50 (SK-MEL-5 melanoma) [µM] | GI50 (SNB-19 CNS) [µM] | GI50 (SW-620 colon) [µM]
COc1cc(C(=O)O)c([N+](=O)[O-])c(OC)c1OC | > 100 | > 100 | > 100 | > 100 | > 100 | > 100 | > 100 | > 100 |  |  |  |  |  |  |  |  |  | 
Nc1nc(N)[n+]([O-])c(N)c1NCO | > 100 | > 100 | > 100 | > 100 | > 100 | > 100 | > 100 | > 100 | > 100 |  |  |  |  |  |  |  |  | 
Cn1nc(-c2ccccc2NC(=O)C(F)(F)F)c(=O)n(C)c1=S | 89.4 |  | 80.9 | 67.7 | 56 | > 100 | > 100 | > 100 | > 100 |  |  |  |  |  |  |  |  | 
Cn1cc(-c2ccc(=O)n(Cc3cccc(-c4ncc(OCCN5CCOCC5)cn4)c3)n2)cn1 | > 100 | > 100 | > 100 | > 100 | > 100 | 59.1 | > 100 | > 100 | > 100 | > 79.7 | 82.1 | > 100 | 52.2 | 36.5 | > 100 | 19.6 | > 87.4 | > 100
COC(=O)c1cnc(=O)n(C2CC(O)C(CO)O2)c1 (configuration not stated) | > 100 | > 100 | > 100 | > 100 | > 100 | > 100 | > 100 | > 100 | > 100 | > 100 |  | > 100 | > 100 | > 100 | > 100 | > 100 | > 100 | > 100
COc1cc(-c2cc(C(=O)N3CCN(C(=O)c4ccccc4NCc4ccco4)CC3)nc3cc(-c4ccccc4)nn23)cc(OC)c1OC | > 100 | > 100 | > 100 | > 100 | > 100 | > 100 | > 100 | > 100 | > 100 | 1.34 | 4.57 | 3.4 | 0.878 | 4.38 | 4.38 | 1.46 | 7.87 | 2.62
Cc1cc2c(C)c3cc(C)c(N)cc3nc2cc1N | 8.66 | 10.6 | 10.2 | 7.54 | 6.53 | 5.28 | 10.2 | 3.57 | 10.6 | 2.03 | 0.93 | 1.43 | 0.745 | 0.499 | 0.604 | 1.73 | 0.685 | 0.38
CCCCCCCCCCCCc1ccc(C(=O)/C=C/C(=O)O)cc1 | 3.58 | 3.45 | 25.9 | 12.9 | 8.28 | 28.7 | 22 | 3.67 | 5.29 | 1.76 | 0.547 | 1.71 | 11.7 | 3.44 | 2.64 | 14.5 | 7.07 | 1.43
Cn1ncc2cc3c(Nc4ccc(Cl)cc4)cccc3nc21 | 61.3 | 37.5 | 35.6 | 76.1 | > 100 | 29.4 | > 100 | 48.8 | 92.7 |  |  |  |  |  |  |  |  | 
O=C1C2=C(c3ccccc31)C(c1cccc(Cl)c1)NC(=S)N2 (configuration not stated) | > 100 | > 100 | > 100 | > 100 | > 100 | > 100 | > 100 | > 100 | > 100 |  |  |  |  |  |  |  |  | 
O=[N+]([O-])c1ccc(Sc2ncccn2)c([N+](=O)[O-])c1 | 3.59 | 11.1 | 15.9 | 14 | 19.6 | 22.4 | 23.1 | 8.05 | 5.5 | 1.36 | 2.04 | 2.67 | 4.36 | 4.33 | 5.08 | 10.4 | 10.8 | 2.9
NC(N)=NC(CC(=O)O)c1ccccc1 (configuration not stated) | > 100 | > 100 | > 100 | > 100 | > 100 | > 100 | > 100 | > 100 |  |  |  |  |  |  |  |  |  | 
Nc1cccc2c1C(=O)N(C1CCC(=O)NC1=O)C2=O (configuration not stated) | > 100 | > 100 | > 100 | > 100 | > 100 | > 100 | > 100 | > 100 | > 100 | > 100 | > 100 | > 100 | > 100 | > 100 | > 100 | > 100 | > 100 | > 100
C[C@H]1[C@H](OC(=O)CCC(=O)O)O[C@@H]2O[C@]3(C)CC[C@H]4[C@H](C)CC[C@@H]1[C@@]24OO3 | 36 | 16.1 | 12 | > 46.4 | 43.2 | 11.3 | > 100 | 17.8 | 19.7 | 0.532 | 0.452 | 0.107 | 0.168 | 0.445 | 1.04 | 0.315 | 1.62 | 0.282
COc1ccccc1C(=O)/C=C/c1cc2cccc(OC)c2[nH]c1=O | 1.54 | 1.73 | 1.13 | 15 | 2.06 | 0.843 | 1.47 | 1.56 | > 37.9 | 0.0241 | < 0.0182 | 0.027 | < 0.0167 | 0.0392 | 0.0935 | 0.0374 | 0.0332 | 0.0158
